The target in one assay is c-MET (Homo sapiens, UniProt P08581). The experiment in a line: c-MET protein degradation (Simple Western), MKN-45. Format: cell-based. More on the design: assess the resolution of the compound of the present invention for c-MET expressed in cells; endogenous in cells; host or cells: MKN45 (human gastric cancer). As to conditions: c-MET overexpressing gastric cancer cell line MKN-45, treated 24 hours; Table 2. As for the experimental part: In order to assess the resolution of the compound of the present invention for c-MET expressed in cells, cells were dispensed in a 12-well plate at a concentration of 2 × 10^5 cells/well, and then gastric cancer cell lines were treated with samples for 24 hours and lung cancer cell lines were treated for 48 hours. Cell lysates were collected using a scraper on ice, centrifuged at 4°C15,000 rpm for 30 min to obtain a protein-containing supernatant. Protein expression was then measured using the Simple Western Automated Western Blot System Abby instrument using 3 µg of protein for each sample. SDS and heat-induced denaturation proteins were separated by molecular weight, attached to capillary, reacted with anti-c-MET or anti-GAPDH antibodies, which are primary antibodies, and then reacted with HRP-conjugated secondary antibodies, and analyzed the protein expression signal with compass software. Protein expression was normalized based on the expression value of GAPDH, and protein development in each sample was measured as a percentage (%) based on 100% of samples treated with 0.1% DMSO carriers, and DC50 (concentration of a compound where 50% protein inhibition is achieved) was calculated from the change in protein expression amount due to compound treatment.
Sequence of c-MET (P08581 25-1390): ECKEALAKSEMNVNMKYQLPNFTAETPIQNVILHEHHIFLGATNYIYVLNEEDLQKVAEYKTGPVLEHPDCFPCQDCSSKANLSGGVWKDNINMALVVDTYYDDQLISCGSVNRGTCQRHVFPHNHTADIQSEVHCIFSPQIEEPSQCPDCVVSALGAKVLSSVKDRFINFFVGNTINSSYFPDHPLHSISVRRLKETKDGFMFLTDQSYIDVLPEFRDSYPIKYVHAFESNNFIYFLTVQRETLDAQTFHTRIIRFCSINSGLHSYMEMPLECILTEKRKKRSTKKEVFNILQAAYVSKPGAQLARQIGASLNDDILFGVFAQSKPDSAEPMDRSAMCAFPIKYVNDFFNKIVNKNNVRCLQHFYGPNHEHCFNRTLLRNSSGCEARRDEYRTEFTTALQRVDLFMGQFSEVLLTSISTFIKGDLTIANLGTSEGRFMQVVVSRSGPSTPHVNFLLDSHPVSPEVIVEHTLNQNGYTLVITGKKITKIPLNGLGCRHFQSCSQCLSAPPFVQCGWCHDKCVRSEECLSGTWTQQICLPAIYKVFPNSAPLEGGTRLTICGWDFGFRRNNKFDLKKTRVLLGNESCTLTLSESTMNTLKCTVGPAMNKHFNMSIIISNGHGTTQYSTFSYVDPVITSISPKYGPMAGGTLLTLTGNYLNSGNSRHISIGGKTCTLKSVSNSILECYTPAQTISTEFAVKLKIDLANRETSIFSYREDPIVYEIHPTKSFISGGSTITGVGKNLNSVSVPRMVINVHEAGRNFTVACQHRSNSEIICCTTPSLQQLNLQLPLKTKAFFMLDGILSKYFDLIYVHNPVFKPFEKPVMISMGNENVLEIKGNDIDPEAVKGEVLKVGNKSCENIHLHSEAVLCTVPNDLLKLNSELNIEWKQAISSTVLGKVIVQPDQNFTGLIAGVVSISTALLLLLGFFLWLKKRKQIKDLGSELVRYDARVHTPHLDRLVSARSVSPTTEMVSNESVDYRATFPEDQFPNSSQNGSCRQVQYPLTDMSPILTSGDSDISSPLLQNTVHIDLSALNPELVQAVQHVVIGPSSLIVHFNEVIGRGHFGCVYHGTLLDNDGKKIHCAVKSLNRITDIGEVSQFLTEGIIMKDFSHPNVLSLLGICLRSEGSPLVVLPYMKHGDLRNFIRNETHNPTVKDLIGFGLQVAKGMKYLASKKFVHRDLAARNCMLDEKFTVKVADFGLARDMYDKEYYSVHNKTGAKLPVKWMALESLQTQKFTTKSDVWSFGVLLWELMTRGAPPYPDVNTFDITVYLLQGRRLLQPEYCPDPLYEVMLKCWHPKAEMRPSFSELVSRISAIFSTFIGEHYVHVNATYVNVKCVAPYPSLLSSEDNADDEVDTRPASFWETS

The subject of a further assay is MKN-45. As to the kind of experiment: Cell viability / antiproliferative assay (WST-8), MKN-45.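 Further: MKN-45 is a human gastric cancer line overexpressing c-MET, growth inhibition read as WST-8 formazan absorbance at 450 nm after 2 h dye incubation.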 Particulars: read-out: MKN-45 IC50.
[1] abbreviates: MKN-45 cells, 72 hours, WST-8, Table 2.
Where [2] appears, read: MKN-45 cells, 72 hours, WST-8, Table 1.

SMILES strings stand for the structures. Where two headings read alike, the source gives them in different places. Bounds are passed on as bounds.

What is called DC50 is the concentration at which degradation of the target reaches its halfway point. A lower DC50 goes with degradation at low concentration. For orientation: IC50 means the midpoint of a concentration-inhibition curve. Take `Cc1nn(C2CCC(=O)NC2=O)c(=O)c2ccc(N3CCO[C@H](CN4CCN(CC(=O)N5CCC(COc6cnc(-c7cccc(Cn8nc(-c9cccc(C#N)c9)ccc8=O)c7)nc6)CC5)CC4)C3)cc12` (stereo partly shown) [ICT-0001229]: the DC50 at c-MET was less than 100 nM. Besides, the IC50 in the assay on MKN-45 (Homo sapiens, MKN-45, 72 h) was less than 100 nM.
In the case of `Cc1nn(C2CCC(=O)NC2=O)c(=O)c2ccc(NCCCC(=O)N3CCC(COc4cnc(-c5cccc(Cn6nc(-c7cccc(C#N)c7)ccc6=O)c5)nc4)CC3)cc12` (stereo not shown) [ICT-0000989], the half-maximal inhibitory concentration (IC50) in the assay on MKN-45 (Homo sapiens, MKN-45, 72 h) was less than 100 nM.
For the compound `N#Cc1cccc(-c2ccc(=O)n(Cc3cccc(-c4ncc(OCC5CCN(C(=O)CCOCCOCCOCCOCCNc6cccc7cnn(C8CCC(=O)NC8=O)c(=O)c67)CC5)cn4)c3)n2)c1` (stereo not shown) [ICT-0000907], the IC50 in the assay on MKN-45 (Homo sapiens, MKN-45, 72 h) is less than 100 nM.
`N#Cc1cccc(-c2ccc(=O)n(Cc3cccc(-c4ncc(OCC5CCN(CC(=O)N6CCN(c7ccc8c(=O)n(C9CCC(=O)NC9=O)ncc8c7)CC6)CC5)cn4)c3)n2)c1` (stereo not shown) [ICT-0001221] came in with a DC50 at c-MET of less than 100 nM. Also, the IC50 in the assay on MKN-45 (Homo sapiens, MKN-45, 72 h) was less than 100 nM.
Compound `Cc1nn(C2CCC(=O)NC2=O)c(=O)c2ccc(N3CCN(C[C@H]4CCN(CC(=O)N5CCC(COc6cnc(-c7cccc(Cn8nc(-c9cccc(C#N)c9)ccc8=O)c7)nc6)CC5)CO4)CC3)cc12` (stereo partly shown) [ICT-0001254] gave a DC50 at c-MET of 100 to 1000 nM. The IC50 with MKN-45 (setting [1]) is less than 100 nM.
The compound `Cc1nn(C2CCC(=O)NC2=O)c(=O)c2ccc(N3CCN(CC4CCN(CC(=O)N5CCC(COc6cnc(-c7cccc(Cn8nc(-c9cccc(C#N)c9)ccc8=O)c7)nc6)CC5)CC4)CC3)cc12` (stereo not shown) [ICT-0001256] displayed a DC50 on c-MET of less than 100 nM.
At c-MET, `Cc1nn(C2CCC(=O)NC2=O)c(=O)c2cc(N3CCN(CC(=O)N4CCC(COc5cnc(-c6cccc(Cn7nc(-c8cccc(C#N)c8)ccc7=O)c6)nc5)CC4)CC3)ccc12` (stereo not shown) [ICT-0001214, 3-(1-(3-(5-((1-(2-(4-(3-(2,6-dioxopiperidin-3-yl)-1-methyl-4-oxo-3,4-dihydropetalazine-6-yl)piperazine-1-il)acetyl)piperidine-4-il)methoxy)pyrimidine-2-yl)benzyl)6-oxo-1,6-dihydropyridazine-3-yl)benzonitrile] came in with a 50% degradation concentration (DC50) of less than 100 nM. Further, in the assay with MKN-45 (setting [1]), the IC50 was less than 100 nM.
At c-MET, `Cc1nn(C2CCC(=O)NC2=O)c(=O)c2ccc(NCCOCCOCCOCCOCCC(=O)N3CCC(COc4cnc(-c5cccc(Cn6nc(-c7cccc(C#N)c7)ccc6=O)c5)nc4)CC3)cc12` (stereo not shown) [ICT-0001091] showed a DC50 of less than 100 nM. In addition, in the assay on MKN-45 (Homo sapiens, MKN-45, 72 h), the concentration for half-maximal inhibition (IC50) was less than 100 nM.
The compound `Cc1nn(C2CCC(=O)NC2=O)c(=O)c2cc(N3CCN(C(=O)CN4CCC(COc5cnc(-c6cccc(Cn7nc(-c8cccc(C#N)c8)ccc7=O)c6)nc5)CC4)CC3)ccc12` (stereo not shown) [ICT-0001115, 3-(1-(3-(5-((1-(2-(4-(3-(2,6-dioxopiperidin-3-yl)-1-methyl-4-oxo-3,4-dihydropetalazine-6-yl)piperazine-1-yl)2-oxoethyl)piperidine-4-il)methoxy)pyrimidine-2-yl)benzyl)6-oxo-1,6-dihydropyridazine-3-yl)benzonitrile] returned a DC50 at c-MET of less than 100 nM.
With `Cc1nn(C2CCC(=O)NC2=O)c(=O)c2cc(F)c(N3CCN(CC4CCN(CC(=O)N5CCC(COc6cnc(-c7cccc(Cn8nc(-c9cccc(C#N)c9)ccc8=O)c7)nc6)CC5)CC4)CC3)cc12` (stereo not shown) [ICT-0001272], the DC50 on c-MET is less than 100 nM. Besides, in the assay with MKN-45 (Homo sapiens, MKN-45, 72 h), the IC50 was less than 100 nM.
At c-MET, `Cc1nn(C2CCC(=O)NC2=O)c(=O)c2ccc(N3CCN(C4CCN(C(=O)CN5CCC(COc6cnc(-c7cccc(Cn8nc(-c9cccc(C#N)c9)ccc8=O)c7)nc6)CC5)CC4)CC3)cc12` (stereo not shown) [ICT-0001237] came in with a DC50 of less than 100 nM. Further, the IC50 in the assay on MKN-45 (Homo sapiens, MKN-45, 72 h) is less than 100 nM.
At c-MET, `Cc1nn(C2CCC(=O)NC2=O)c(=O)c2ccc(N3CCN(CCCC(=O)N4CCC(COc5cnc(-c6cccc(Cn7nc(-c8cccc(C#N)c8)ccc7=O)c6)nc5)CC4)CC3)cc12` (stereo not shown) [ICT-0001175, 3-(1-(3-(5-((1-(4-(4-(2-(2,6-dioxopiperidine-3-yl)-4-methyl-1-oxo-1,2-dihydropthalazine-6-yl)piperazine-1-yl)butanoyl)piperidine-4-il)methoxy)pyrimidine-2-yl)benzyl)6-oxo-1,6-dihydropyridazine-3-yl)benzonitrile] had a DC50 of less than 100 nM. Besides, the IC50 in the assay with MKN-45 (Homo sapiens, MKN-45, 72 h) was less than 100 nM.
As to `N#Cc1cccc(-c2ccc(=O)n(Cc3cccc(-c4ncc(OCC5CCN(C(=O)COCCOCCOCCOCCNc6ccc7c(=O)n(C8CCC(=O)NC8=O)ncc7c6)CC5)cn4)c3)n2)c1` (stereo not shown) [ICT-0000988, 3-(1-{[3-(5-{[1-(14-{[2-(2,6-dioxopiperidin-3-yl)-1-oxo-1,2-dihydroptalazine-6-yl]amino}-3,6,9,12-tetradecanoyl)piperidin-4-yl]methoxy}pyrimidine-2-yl)phenyl]methyl}-6-oxo-1,6-dihydropyridazine-3-yl)benzonitrile], at c-MET, the DC50 is less than 100 nM. In addition, in the assay with MKN-45 (Homo sapiens, MKN-45, 72 h), the IC50 lay within 100 to 1000 nM.
At c-MET, `Cc1nn(C2CCC(=O)NC2=O)c(=O)c2cc(N3CCC(C(=O)NCCCNC(=O)CN4CCC(COc5cnc(-c6cccc(Cn7nc(-c8cccc(C#N)c8)ccc7=O)c6)nc5)CC4)CC3)ccc12` (stereo not shown) [ICT-0001238] showed a DC50 of more than 1000 nM.
As to `Cc1nn(C2CCC(=O)NC2=O)c(=O)c2ccc(N3CCN(c4ccc(NCC(=O)N5CCC(COc6cnc(-c7cccc(Cn8nc(-c9cccc(C#N)c9)ccc8=O)c7)nc6)CC5)cc4)CC3)cc12` (stereo not shown) [ICT-0001240, 3-(1-(3-(5-((1-((4-(4-(2-(2,6-dioxopiperidin-3-yl)-4-methyl-1-oxo-1,2-dihydropthalazine-6-yl)piperazine-1-yl)phenyl)glycyl)piperidine-4-il)methoxy)pyrimidine-2-yl)benzyl)6-oxo-1,6-dihydropyridazine-3-yl)benzonitrile], the IC50 in the assay on MKN-45 (Homo sapiens, MKN-45, 72 h) was less than 100 nM.
Turning to `Cn1cc(-c2cnc3c(nnn3C[C@@H]3CN(c4ncc(-c5ccc(CN6CCN(C(=O)CCOCCOCCNc7cccc8cnn(C9CCC(=O)NC9=O)c(=O)c78)CC6)cc5)cn4)CCO3)n2)cn1` (stereo partly shown) [ICT-0000940], the IC50 in the assay on MKN-45 (Homo sapiens, MKN-45, 72 h) lay in the range of 100 to 1000 nM.
`Cn1cc(-c2cnc3c(nnn3C[C@@H]3CN(c4ncc(-c5ccc(CN6CCN(C(=O)COCCOCCOCCNc7cccc8cnn(C9CCC(=O)NC9=O)c(=O)c78)CC6)cc5)cn4)CCO3)n2)cn1` (stereo partly drawn) [ICT-0000942, 3-[8-(12-{4-[(4-{2-[(2S)-2-{[5-(1-methyl-1H-pyrazole-4-yl)-1H-[1,2,3]triazolo[4,5-b]pyrazine-1-yl]methyl}morpholine-4-day]pyrimidine-5-yl}phenyl)methyl]piperazine-1-il}-12-oxo-4,7,10-trioxa-1-azadodecane-1-yl)-1-oxo-1,2-dihydroptalazine-2-yl]piperidine-2,6-dione]: the IC50 with MKN-45 (setting [2]) is less than 100 nM.
On to `Cn1cc(-c2cnc3c(nnn3C[C@@H]3CN(c4ncc(-c5ccc(CN6CCN(C(=O)CCOCCOCCOCCOCCNc7cccc8cnn(C9CCC(=O)NC9=O)c(=O)c78)CC6)cc5)cn4)CCO3)n2)cn1` (stereo partly drawn) [ICT-0000946, 3-[8-(16-{4-[(4-{2-[(2S)-2-{[5-(1-methyl-1H-pyrazole-4-yl)-1H-[1,2,3]triazolo[4,5-b]pyrazine-1-yl]methyl}morpholine-4-day]pyrimidine-5-yl}phenyl)methyl]piperazine-1-yl}-16-oxo-4,7,10,13-tetraoxa-1-azahexadecane-1-yl)-1-oxo-1,2-dihydroptalazine-2-yl]piperidine-2,6-dione], for which the IC50 in the assay with MKN-45 (setting [2]) is 100 to 1000 nM.
For `N#Cc1cccc(-c2ccc(=O)n(Cc3cccc(-c4ncc(OCC5CCN(C(=O)CCCCCNc6ccc7c(=O)n(C8CCC(=O)NC8=O)ncc7c6)CC5)cn4)c3)n2)c1` (stereo not shown) [ICT-0000984, 3-(1-{[3-(5-{[1-(6-{[2-(2,6-dioxopiperidin-3-yl)-1-oxo-1,2-dihydropthalazine-6-yl]amino}hexanoyl)piperidine-4-il]methoxy}pyrimidine-2-yl)phenyl]methyl}-6-oxo-1,6-dihydropyridazine-3-yl)benzonitrile], the IC50 in the assay on MKN-45 (Homo sapiens, MKN-45, 72 h) is less than 100 nM.
As to `Cn1cc(-c2cnc3c(nnn3C[C@@H]3CN(c4ncc(-c5ccc(CN6CCN(C(=O)CCCCCNc7cccc8cnn(C9CCC(=O)NC9=O)c(=O)c78)CC6)cc5)cn4)CCO3)n2)cn1` (stereo partly drawn) [ICT-0000970, 3-(8-((6-(4-(4-(2-((S)-2-((5-(1-methyl-1H-pyrazole-4-yl)-1H-[1,2,3]triazolo[4,5-b]pyrazine-1-yl)methyl)morpholino)pyrimidine-5-yl)benzyl)piperazine-1-yl)6-oxohexyl)amino)1-oxopthalazine-2(1H)-yl)piperidine-2,6-dione], the IC50 in the assay on MKN-45 (setting [2]) was less than 100 nM.
Regarding `Cn1cc(-c2cnc3c(nnn3C[C@@H]3CN(c4ncc(-c5ccc(CN6CCN(C(=O)COCCOCCOCCOCCOCCNc7cccc8cnn(C9CCC(=O)NC9=O)c(=O)c78)CC6)cc5)cn4)CCO3)n2)cn1` (stereo partly drawn) [ICT-0000967, 3-(8-((17-(4-(4-(2-((S)-2-((5-(1-methyl-1H-pyrazole-4-yl)-1H-[1,2,3]triazolo[4,5-b]pyrazine-1-yl)methyl)morpholino)pyrimidine-5-yl)benzyl)piperazine-1-yl)17-oxo-3,6,9,12,15-pentaheptacel)amino)-1-oxopthalazine-2(1H)-yl)piperidine-2,6-dione], in the assay on MKN-45 (setting [2]), the concentration for half-maximal inhibition (IC50) was 100 to 1000 nM.
Consider `Cn1cc(-c2cnc3c(nnn3C[C@@H]3CN(c4ncc(-c5ccc(CN6CCN(C(=O)CCOCCOCCOCCOCCOCCOCCNc7cccc8cnn(C9CCC(=O)NC9=O)c(=O)c78)CC6)cc5)cn4)CCO3)n2)cn1` (stereo partly shown) [ICT-0000968], for which the half-maximal inhibitory concentration (IC50) in the assay on MKN-45 (setting [2]) lay in the range of 100 to 1000 nM.

The values are drawn from patent EP4624466A1, “DEGRADER FOR DECOMPOSING CMET PROTEIN, AND PHARMACEUTICAL COMPOSITION COMPRISING SAME” (Innocure Therapeutics, Inc., priority 2022, dated 2024).
